Test results as given in PMC5882164, “A novel calcimimetic agent, evocalcet (MT-4580/KHK7580), suppresses the parathyroid cell function with little effect on the gastrointestinal tract or CYP isozymes in vivo and in vitro” (PLoS ONE, 2018).
Where “and” joins values, the source holds several entries; their conditions need not be identical. Equal values may be shown once.

System: serum calcium
Test: 5/6 nephrectomized rats study: serum calcium level
Type: in vivo, rat
Set-up: Serum Ca levels: unit not given here
Conditions: 5/6 Nx rats
Experimental: Rats were 5/6 nephrectomized in two steps. Under anesthesia (pentobarbital, 50 mg/kg; intraperitoneally) and analgesia (lidocaine; topically), two-thirds of the left kidney was removed, and then the right kidney was removed after a seven-day interval. Seven days after the completion of 5/6 nephrectomy, the FR-2 diet was changed to a high-phosphate diet, containing 0.6% calcium and 0.9% phosphate (Oriental Yeast Co., Ltd., Tokyo, Japan). Approximately 2 weeks after the initiation of the high-phosphate diet, the 5/6 Nx rats were divided into five groups (n = 12/group) matched in terms of their body weight as well as their blood urea nitrogen (BUN) and serum PTH and calcium levels.
In the single-dose study, blood samples were collected from the tail vein before and at 0.5, 2, 4, 8, 24, 48, and 72 h after the oral administration of vehicle (0.5% methyl cellulose solution) or evocalcet (0.03, 0.1, 0.3, or 1 mg/kg). In the repeated-dose study, vehicle or evocalcet was orally administered to the respective groups once daily for 14 days. Blood samples were obtained from the tail vein before the first administration and after the seventh and last administrations.
The serum PTH level was measured using a Rat Intact PTH ELISA kit (Immutopics, Inc., San Clemente, CA). The serum calcium, phosphate and BUN levels were measured using an auto analyzer (Hitachi High-Technologies Corporation., Tokyo, Japan) or the following test kits: the Calcium E-test WAKO, the Phospha C-test WAKO, or the Blood Urea nitrogen B-test WAKO (Wako Pure Chemical Industries, Ltd., Osaka, Japan).

In the case of `C[C@@H](N[C@H]1CCN(c2ccc(CC(=O)O)cc2)C1)c1cccc2ccccc12` [evocalcet], the “Serum Ca levels before (day 0) and 24 h after evocalcet administration, Mean” value (0.03 mg/kg, day 0 (Before), group mean) is reported as 7.862, the “Serum Ca levels before (day 0) and 24 h after evocalcet administration” value (0.03 mg/kg, day 0 (Before), individual rats, 0.03 mg/kg) is reported as 6.475 and 7.379 and 7.410 and 6.746 and 6.842 and 8.689 and 8.077 and 8.881 and 8.577 and 8.645 and 8.453 and 8.169 and the “Serum Ca levels before (day 0) and 24 h after evocalcet administration, Mean” value (0.03 mg/kg, day 7 (24 h), group mean) is reported as 6.700. For the same compound, the “Serum Ca levels before (day 0) and 24 h after evocalcet administration” value (0.03 mg/kg, day 7 (24 h), individual rats, 0.03 mg/kg) was 4.756 and 6.463 and 7.204 and 6.649 and 7.424 and 7.568 and 6.316 and 6.947 and 6.611 and 7.154 and 6.338 and 6.972, the “Serum Ca levels before (day 0) and 24 h after evocalcet administration, Mean” value (0.03 mg/kg, day 14 (24 h), group mean) was 7.524 and the “Serum Ca levels before (day 0) and 24 h after evocalcet administration” value (0.03 mg/kg, day 14 (24 h), individual rats, 0.03 mg/kg) was 6.629 and 7.365 and 7.620 and 6.148 and 7.312 and 8.717 and 7.991 and 8.107 and 7.192 and 7.532 and 7.865 and 7.809. For the same compound, the “Serum Ca levels after the first administration, Mean” value (0.03 mg/kg, time 0 h, group mean) was 7.862, the “Serum Ca levels after the first administration” value (0.03 mg/kg, time 0 h, individual rats) was 6.475 and 7.379 and 7.410 and 6.746 and 6.842 and 8.689 and the “Serum Ca levels after the first administration, Mean” value (0.03 mg/kg, time 0.5 h, group mean) was 7.066. The “Serum Ca levels after the first administration” value (0.03 mg/kg, time 0.5 h, individual rats) was 5.843 and 6.570 and 6.547 and 6.666 and 6.639 and 7.943, the “Serum Ca levels after the first administration, Mean” value (0.03 mg/kg, time 2 h, group mean) was 7.130 and the “Serum Ca levels after the first administration” value (0.03 mg/kg, time 2 h, individual rats) was 6.221 and 6.752 and 6.943 and 6.746 and 6.851 and 7.851. The “Serum Ca levels after the first administration, Mean” value (0.03 mg/kg, time 4 h, group mean) was 7.511, the “Serum Ca levels after the first administration” value (0.03 mg/kg, time 4 h, individual rats) was 6.129 and 7.183 and 6.895 and 7.539 and 6.860 and 8.183 and the “Serum Ca levels after the first administration, Mean” value (0.03 mg/kg, time 8 h, group mean) was 7.889. The “Serum Ca levels after the first administration” value (0.03 mg/kg, time 8 h, individual rats) was 7.265 and 7.625 and 7.368 and 8.097 and 7.474 and 8.633, the “Serum Ca levels after the first administration, Mean” value (0.03 mg/kg, time 24 h, group mean) was 7.657 and the “Serum Ca levels after the first administration” value (0.03 mg/kg, time 24 h, individual rats) was 7.337 and 7.644 and 7.429 and 7.568 and 7.040 and 8.620. The “Serum Ca levels before (day 0) and 24 h after evocalcet administration, Mean” value (0.1 mg/kg, day 0 (Before), group mean) was 7.709, the “Serum Ca levels before (day 0) and 24 h after evocalcet administration” value (0.1 mg/kg, day 0 (Before), individual rats, 0.1 mg/kg) was 7.331 and 8.275 and 7.642 and 7.659 and 8.173 and 8.364 and 6.513 and 7.933 and 8.070 and 7.690 and 6.674 and 8.180 and the “Serum Ca levels before (day 0) and 24 h after evocalcet administration, Mean” value (0.1 mg/kg, day 7 (24 h), group mean) was 7.317. For the same compound, the “Serum Ca levels before (day 0) and 24 h after evocalcet administration” value (0.1 mg/kg, day 7 (24 h), individual rats, 0.1 mg/kg) was 7.427 and 8.099 and 7.493 and 7.242 and 7.637 and 7.025 and 6.448 and 7.138 and 7.123 and 6.680 and 7.302 and 8.184, the “Serum Ca levels before (day 0) and 24 h after evocalcet administration, Mean” value (0.1 mg/kg, day 14 (24 h), group mean) was 7.011 and the “Serum Ca levels before (day 0) and 24 h after evocalcet administration” value (0.1 mg/kg, day 14 (24 h), individual rats, 0.1 mg/kg) was 7.048 and 7.642 and 6.969 and 7.601 and 6.617 and 6.853 and 5.928 and 7.145 and 7.117 and 6.576 and 7.375 and 7.261. The “Serum Ca levels after the first administration, Mean” value (0.1 mg/kg, time 0 h, group mean) was 7.709, the “Serum Ca levels after the first administration” value (0.1 mg/kg, time 0 h, individual rats) was 7.331 and 8.275 and 7.642 and 7.659 and 8.173 and 8.364 and 6.513 and 7.933 and 8.070 and 7.690 and 6.674 and the “Serum Ca levels after the first administration, Mean” value (0.1 mg/kg, time 0.5 h, group mean) was 6.755. The “Serum Ca levels after the first administration” value (0.1 mg/kg, time 0.5 h, individual rats) was 6.761 and 6.580 and 6.840 and 7.344 and 6.409 and 6.926 and 6.241 and 6.919 and 6.445 and 6.968 and 6.307, the “Serum Ca levels after the first administration, Mean” value (0.1 mg/kg, time 2 h, group mean) was 6.694 and the “Serum Ca levels after the first administration” value (0.1 mg/kg, time 2 h, individual rats) was 6.582 and 6.412 and 6.604 and 7.150 and 6.977 and 6.857 and 5.795 and 6.903 and 7.147 and 6.715 and 6.267. The “Serum Ca levels after the first administration, Mean” value (0.1 mg/kg, time 4 h, group mean) was 7.099, the “Serum Ca levels after the first administration” value (0.1 mg/kg, time 4 h, individual rats) was 7.060 and 7.085 and 7.028 and 7.482 and 7.364 and 7.406 and 5.948 and 7.326 and 7.361 and 7.050 and 6.742 and the “Serum Ca levels after the first administration, Mean” value (0.1 mg/kg, time 8 h, group mean) was 7.285. The “Serum Ca levels after the first administration” value (0.1 mg/kg, time 8 h, individual rats) was 7.692 and 7.609 and 7.307 and 7.085 and 7.975 and 4.442 and 6.559 and 7.908 and 8.235 and 7.683, the “Serum Ca levels after the first administration, Mean” value (0.1 mg/kg, time 24 h, group mean) was 7.626 and the “Serum Ca levels after the first administration” value (0.1 mg/kg, time 24 h, individual rats) was 7.618 and 8.042 and 7.976 and 7.739 and 7.539 and 7.979 and 6.079 and 7.486 and 8.194 and 7.356. For the same compound, the “Serum Ca levels” value (0.3 mg/kg, day 0 (before), group mean) was 7.177, the “Serum Ca levels” value (0.3 mg/kg, day 0 (before), individual rats, 0.3 mg/kg) was 7.714 and 7.098 and 4.207 and 6.520 and 8.019 and 4.857 and 7.006 and 8.419 and 8.245 and 7.878 and 7.711 and 8.450 and the “Serum Ca levels” value (0.3 mg/kg, day 7 (24 h after administration), group mean) was 5.744. For the same compound, the “Serum Ca levels” value (0.3 mg/kg, day 7 (24 h after administration), individual rats, 0.3 mg/kg) was 6.617 and 4.991 and 5.484 and 4.834 and 5.302 and 6.718 and 6.297 and 6.366 and 7.085 and 5.154 and 4.887 and 5.195, the “Serum Ca levels” value (0.3 mg/kg, day 14 (24 h after administration), group mean) was 5.948 and the “Serum Ca levels” value (0.3 mg/kg, day 14 (24 h after administration), individual rats, 0.3 mg/kg) was 6.601 and 5.324 and 6.337 and 4.673 and 5.104 and 7.592 and 6.733 and 6.057 and 5.865 and 5.887 and 5.547 and 5.661. For the same compound, the “Serum Ca levels after the first administration, Mean” value (0.3 mg/kg, time 0 h, group mean) was 7.177, the “Serum Ca levels after the first administration, Mean” value (0.3 mg/kg, time 0.5 h, group mean) was 6.778 and the “Serum Ca levels after the first administration, Mean” value (0.3 mg/kg, time 2 h, group mean) was 6.136. For the same compound, the “Serum Ca levels after the first administration, Mean” value (0.3 mg/kg, time 4 h, group mean) was 6.714.
